Target: T1, Jak2 (Homo sapiens, UniProt O60674)
T1 construct: endogenous in cells; host or cells: CWR22Rv1
Assay: Jak2 phosphorylation in CWR22Rv1 cells (immunoprecipitation/Western blot)
Format: cell-based
Conditions: CWR22Rv1 cells, 25, 50 and 100 μM for 2 h, 10 nM Prl 30 minutes
Method: CWR22Rv1 cells were starved for 24 h in serum-free medium, treated N6BAP at 25, 50 and 100 μM concentrations for 2 h, followed by stimulation with 10 nM Prl for 30 minutes. Stat5a and Jak2 were immunoprecipitated with anti-Stat5a or anti-Jak2 pAbs. Immunoprecipitates of CWR22Rv1 cells were blotted with anti-PYStat5, anti-Stat5a/b mAb or anti-PY mAb (for Jak2). Whole cell lysates were immunoblotted with anti-actin pAb for loading control. Because SH2-domain of Stat5 mediates the recruitment of Stat5 to the Prl-receptor-Jak2-complex and Stat5 phosphorylation, N6BAP inhibits Prl-induced phosphorylation of Stat5.
The protocol in more detail comprised the following. Cell pellets were solubilized in lysis buffer [10 mM Tris-HCl (pH 7.6), 5 mM EDTA, 50 mM sodium chloride, 30 mM sodium pyrophosphate, 50 mM sodium fluoride, 1 mM sodium orthovanadate, 1% Triton X-100, 1 mM phenylmethylsulfonyl fluoride, 5 μg/mlaprotinin, 1 μg/ml pepstatin A, and 2 μg/ml leupeptin], rotated end-over-end at 4° C. for 60 min, and insoluble material was pelleted at 12,000×g for 30 min at 4° C. The protein concentrations of clarified cell lysates were determined by simplified Bradford method (Bio-Rad Laboratories, Hercules, Calif.). Stat5a, Stat5b and Jak2 were immunoprecipitated from whole cell lysates with anti-Stat5a, anti-Stat5b (4 μl/ml; Millipore, Billerica, Mass.) or anti-Jak2 (Millipore) pAbs. […]

T1 sequence (O60674 whole entry): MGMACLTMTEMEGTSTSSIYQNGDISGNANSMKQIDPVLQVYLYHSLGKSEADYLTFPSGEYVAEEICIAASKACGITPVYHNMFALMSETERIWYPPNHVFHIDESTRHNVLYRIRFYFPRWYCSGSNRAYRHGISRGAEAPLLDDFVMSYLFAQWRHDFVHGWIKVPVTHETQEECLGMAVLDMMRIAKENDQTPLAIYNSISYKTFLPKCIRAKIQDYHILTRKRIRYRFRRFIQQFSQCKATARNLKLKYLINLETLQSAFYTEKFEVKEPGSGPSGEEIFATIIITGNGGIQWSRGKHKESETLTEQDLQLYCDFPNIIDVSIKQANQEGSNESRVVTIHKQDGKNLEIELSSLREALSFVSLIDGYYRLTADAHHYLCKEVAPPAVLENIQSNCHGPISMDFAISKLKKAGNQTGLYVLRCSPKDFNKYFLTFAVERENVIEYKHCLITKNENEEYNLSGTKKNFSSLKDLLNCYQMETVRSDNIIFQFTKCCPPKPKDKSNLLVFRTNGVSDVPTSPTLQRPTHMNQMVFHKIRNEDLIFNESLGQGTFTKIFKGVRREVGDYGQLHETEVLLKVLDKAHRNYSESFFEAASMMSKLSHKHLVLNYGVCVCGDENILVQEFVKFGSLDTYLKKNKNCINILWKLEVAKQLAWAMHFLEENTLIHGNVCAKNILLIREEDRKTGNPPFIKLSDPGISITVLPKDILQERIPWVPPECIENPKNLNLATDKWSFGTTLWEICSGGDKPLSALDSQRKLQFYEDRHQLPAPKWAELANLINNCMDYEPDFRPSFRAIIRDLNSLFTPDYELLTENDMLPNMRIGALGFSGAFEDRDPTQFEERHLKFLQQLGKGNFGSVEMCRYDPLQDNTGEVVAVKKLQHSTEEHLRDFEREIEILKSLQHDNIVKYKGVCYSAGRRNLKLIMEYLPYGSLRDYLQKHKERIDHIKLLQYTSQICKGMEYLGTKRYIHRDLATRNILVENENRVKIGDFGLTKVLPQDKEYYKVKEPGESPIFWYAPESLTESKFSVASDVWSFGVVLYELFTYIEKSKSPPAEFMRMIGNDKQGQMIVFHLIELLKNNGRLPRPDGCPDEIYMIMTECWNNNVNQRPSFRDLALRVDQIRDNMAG

## O=P(O)(O)OC[C@H]1O[C@@H](n2cnc3c(NCc4ccccc4)ncnc32)[C@H](O)[C@@H]1O [N6BAP, N^6-benzyladenosine-5′-monophosphate]
  phosphorylation of Jak2: does not affect phosphorylation of Jak2

From US20160038526A1, “TREATMENT OF PROSTATE CANCER” (THOMAS JEFFERSON UNIVERSITY, priority 2012, published 2016)
